{"source": "ChEMBL document CHEMBL5532661", "about": "“Discovery of a Novel Glucagon-like Peptide-1 (GLP-1) Analogue from Bullfrog and Investigation of Its Potential for Designing GLP-1-Based Multiagonists” (J Med Chem, 2024)", "key": {"[1]": {"biological_target": "T1, Glucagon-like peptide 1 receptor (Homo sapiens, UniProt P43220)", "T1 sequence (P43220 whole entry)": "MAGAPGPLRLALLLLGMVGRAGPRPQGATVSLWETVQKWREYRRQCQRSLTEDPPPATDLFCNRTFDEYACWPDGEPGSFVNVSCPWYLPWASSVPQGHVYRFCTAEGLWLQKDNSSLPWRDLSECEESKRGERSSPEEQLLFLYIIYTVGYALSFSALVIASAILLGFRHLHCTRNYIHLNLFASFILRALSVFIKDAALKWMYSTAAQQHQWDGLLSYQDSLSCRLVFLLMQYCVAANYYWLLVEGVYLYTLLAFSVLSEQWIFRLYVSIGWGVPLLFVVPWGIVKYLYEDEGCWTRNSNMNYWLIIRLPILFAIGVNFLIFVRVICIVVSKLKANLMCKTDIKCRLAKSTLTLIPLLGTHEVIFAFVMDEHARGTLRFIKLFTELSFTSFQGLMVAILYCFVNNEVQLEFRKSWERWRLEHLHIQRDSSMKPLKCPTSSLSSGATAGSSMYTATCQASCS", "assay": "Agonist activity at human GLP-1 receptor expressed in HEK293 cells assessed as cAMP level measured after 60 mins by HTRF based assay", "format": "functional, cell-based"}, "Glucagon receptor [2]": {"biological_target": "T2, Glucagon receptor (Homo sapiens, UniProt P47871)", "T2 sequence (P47871 whole entry)": "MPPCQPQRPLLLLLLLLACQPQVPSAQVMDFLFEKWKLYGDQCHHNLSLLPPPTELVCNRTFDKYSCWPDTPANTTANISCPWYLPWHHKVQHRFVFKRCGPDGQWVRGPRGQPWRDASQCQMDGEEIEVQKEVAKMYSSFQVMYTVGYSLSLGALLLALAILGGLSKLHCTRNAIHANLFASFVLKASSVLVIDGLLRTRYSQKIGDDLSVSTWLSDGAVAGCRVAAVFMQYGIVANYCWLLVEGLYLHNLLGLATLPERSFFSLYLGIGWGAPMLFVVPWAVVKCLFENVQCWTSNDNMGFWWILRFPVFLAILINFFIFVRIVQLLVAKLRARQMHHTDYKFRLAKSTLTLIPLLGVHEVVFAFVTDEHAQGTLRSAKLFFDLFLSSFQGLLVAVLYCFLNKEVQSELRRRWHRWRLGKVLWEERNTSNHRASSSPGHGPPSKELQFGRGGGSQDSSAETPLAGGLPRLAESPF", "assay": "Agonist activity at human GCGR expressed in HEK293 cells assessed as cAMP level measured after 60 mins by HTRF based assay", "format": "functional, cell-based"}, "[3]": {"biological_target": "T3, Gastric inhibitory polypeptide receptor (Homo sapiens, UniProt P48546)", "T3 sequence (P48546 whole entry)": "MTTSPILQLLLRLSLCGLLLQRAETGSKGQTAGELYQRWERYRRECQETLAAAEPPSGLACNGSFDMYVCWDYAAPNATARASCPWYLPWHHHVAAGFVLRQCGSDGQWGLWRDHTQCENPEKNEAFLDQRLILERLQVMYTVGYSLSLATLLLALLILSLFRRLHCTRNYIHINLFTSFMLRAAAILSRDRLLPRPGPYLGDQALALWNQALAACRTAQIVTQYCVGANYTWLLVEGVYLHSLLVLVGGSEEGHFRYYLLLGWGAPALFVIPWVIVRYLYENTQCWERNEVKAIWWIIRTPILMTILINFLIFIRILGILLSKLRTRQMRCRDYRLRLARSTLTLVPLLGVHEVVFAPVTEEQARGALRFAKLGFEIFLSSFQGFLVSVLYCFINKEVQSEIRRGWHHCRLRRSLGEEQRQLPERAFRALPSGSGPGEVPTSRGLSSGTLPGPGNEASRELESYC", "assay": "Agonist activity at human GIPR receptor expressed in HEK293 cells assessed as cAMP level measured after 60 mins by HTRF based assay", "format": "functional, cell-based"}, "Mus musculus [4]": {"tested_on": "Mus musculus", "assay": "Hypoglycemic effect in ICR mouse treated with 3 g/kg glucose assessed as reduction in blood glucose level at 100 nmol/kg, sc measured upto 120 mins by acute glucose lowering test", "format": "functional, organism-based"}, "Mus musculus [5]": {"tested_on": "Mus musculus", "assay": "Hypoglycemic effect in ICR mouse treated with 3 g/kg glucose assessed as reduction in blood glucose level at 30 nmol/kg, sc measured upto 120 mins pretreated with GLP-1R and GIPR antagonist by OGTT", "format": "functional, organism-based"}, "Mus musculus [6]": {"tested_on": "Mus musculus", "assay": "Anorexigenic effect in ICR mouse assessed as decrease in food intake at 30 nmol/kg, sc measured upto 72 hrs by acute food intake study", "format": "functional, organism-based"}, "Mus musculus [7]": {"tested_on": "Mus musculus", "assay": "Anorexigenic effect in ICR mouse assessed as decrease in food intake at 30 nmol/kg, sc measured at 48 hrs by acute food intake study", "format": "functional, organism-based"}, "Mus musculus [8]": {"tested_on": "Mus musculus", "assay": "Antihyperglycemic effect in DIO mouse assessed as antihyperglycemic duration by measuring blood glucose at 30 nmol/kg, sc administered twice daily measured by hypoglycemic duration assay", "format": "functional, organism-based"}, "Mus musculus [9]": {"tested_on": "Mus musculus", "assay": "Reduction in body weight in DIO mouse at 30 nmol/kg, sc treated every 2 and half day once measured after 21 days", "format": "functional", "set-up": "scale not given: the % may be the effect or the level left", "conditions": "time 21 day"}, "Mus musculus [10]": {"tested_on": "Mus musculus", "assay": "Reduction in feed intake in DIO mouse at 30 nmol/kg, sc treated twice a day measured after 21 days", "format": "functional, organism-based", "conditions": "time 21.0 day"}, "Mus musculus [11]": {"tested_on": "Mus musculus", "assay": "Reduction in serum AST in DIO mouse at 30 nmol/kg, sc treated every 2 and half day once measured after 21 days", "format": "functional, organism-based", "conditions": "time 21.0 day"}, "Mus musculus [12]": {"tested_on": "Mus musculus", "assay": "Reduction in serum ALT in DIO mouse at 30 nmol/kg, sc treated every 2 and half day once measured after 21 days", "format": "functional, organism-based", "conditions": "time 21.0 day"}, "Mus musculus [13]": {"tested_on": "Mus musculus", "assay": "Antihyperglycemic effect in non-fasted DIO mouse assessed as decrease in blood glucose at 30 nmol/kg, sc measured upto 48 hrs", "format": "functional, organism-based"}, "[14]": {"biological_target": "T1, Glucagon-like peptide 1 receptor", "assay": "Agonist activity at human GLP-1 receptor expressed in HEK293 cells assessed as cAMP level by measuring relative percent (GLP-1 EC50/compound EC50) measured after 60 mins by HTRF based assay relative to GLP-1", "format": "functional, cell-based", "conditions": "filed as agonist"}, "Glucagon receptor [15]": {"biological_target": "T2, Glucagon receptor", "assay": "Agonist activity at human GCGR expressed in HEK293 cells assessed as cAMP level by measuring relative percent (glucagon EC50/compound EC50) measured after 60 mins by HTRF based assay relative to glucagon", "format": "functional, cell-based"}, "[16]": {"biological_target": "T4, Gastric inhibitory polypeptide receptor (Homo sapiens) (UniProt P48546)", "T4 sequence (whole entry)": "T3 sequence (P48546 whole entry)", "assay": "Agonist activity at human GIPR receptor expressed in HEK293 cells assessed as cAMP level by measuring relative percent (GIP EC50/compound EC50) measured after 60 mins by HTRF based assay relative to GIP", "format": "functional, cell-based"}}, "note": "Calls of active or inactive are those of the source. The rule behind the calls is not given here. Numbered stars: 1 amine (or outer) side, 2 acyl side, 3 side chain; on linkers, the order of the positions; unused ones are H or OH. Square brackets hold non-standard residues; d marks the D form. Side chains are listed from the residue outwards. Peptide text beside a SMILES is read from it. * marks the point of attachment. C20 diacid = O=C(O)CCCCCCCCCCCCCCCCCCC(=O)*; γGlu = O=C(O)[C@H](CCC(=O)[*:2])N[*:1]; Palmitoyl = CCCCCCCCCCCCCCCC(=O)*; AEEA = NCCOCCOCC(=O)O; Aib = CC(C)(N)C(=O)O", "data": [{"smiles": "CC[C@H](C)[C@H](NC(=O)[C@H](Cc1ccccc1)NC(=O)[C@H](C)NC(=O)C(C)(C)NC(=O)[C@H](CCC(N)=O)NC(=O)[C@H](C)NC(=O)[C@H](CCCCNC(=O)COCCOCCNC(=O)CC[C@H](NC(=O)CCCCCCCCCCCCCCCCCCC(=O)O)C(=O)O)NC(=O)[C@H](CCCCN)NC(=O)[C@H](CC(=O)O)NC(=O)[C@H](CC(C)C)NC(=O)[C@](C)(CC(C)C)NC(=O)[C@@H](NC(=O)[C@H](CO)NC(=O)[C@H](Cc1ccc(O)cc1)NC(=O)[C@H](CC(=O)O)NC(=O)[C@H](CO)NC(=O)[C@@H](NC(=O)[C@H](Cc1ccccc1)NC(=O)[C@@H](NC(=O)CNC(=O)[C@H](CCC(N)=O)NC(=O)C(C)(C)NC(=O)[C@@H](N)Cc1ccc(O)cc1)[C@@H](C)O)[C@@H](C)O)[C@@H](C)CC)C(=O)N[C@@H](CCC(=O)O)C(=O)N[C@@H](Cc1ccc(O)cc1)C(=O)N[C@@H](CC(C)C)C(=O)N[C@@H](CC(C)C)C(=O)N[C@@H](CCC(=O)O)C(=O)NCC(=O)NCC(=O)N1CCC[C@H]1C(=O)N[C@@H](CO)C(=O)N[C@@H](CO)C(=O)NCC(=O)N[C@@H](C)C(=O)N1CCC[C@H]1C(=O)N1CCC[C@H]1C(=O)N1CCC[C@H]1C(=O)N[C@@H](CO)C(N)=O", "values": [{"measurement": "EC50", "setting": "[1]", "result": 0.041, "unit": "nM"}, {"measurement": "EC50", "setting": "Glucagon receptor [2]", "result": 0.23, "unit": "nM"}, {"measurement": "EC50", "setting": "[3]", "result": 0.022, "unit": "nM"}, {"measurement": "Activity", "setting": "Mus musculus [4]", "result": "Active"}, {"measurement": "Activity", "setting": "Mus musculus [5]", "result": "inactive"}, {"measurement": "Activity", "setting": "Mus musculus [6]", "result": "Active"}, {"measurement": "Activity", "setting": "Mus musculus [7]", "result": "Active"}, {"measurement": "Activity", "setting": "Mus musculus [8]", "result": "Active"}, {"measurement": "Activity", "setting": "Mus musculus [9]", "result": 38.5, "unit": "%"}, {"measurement": "Activity", "setting": "Mus musculus [10]", "result": "Active"}, {"measurement": "Activity", "setting": "Mus musculus [11]", "result": "Active"}, {"measurement": "Activity", "setting": "Mus musculus [12]", "result": "Active"}]}, {"smiles": "CCCCCCCCCCCCCCCC(=O)N[C@@H](CCC(=O)NCCCC[C@H](NC(=O)[C@H](C)NC(=O)[C@H](C)NC(=O)[C@H](CCC(=O)O)NC(=O)[C@H](CCC(=O)O)NC(=O)[C@H](CCC(=O)O)NC(=O)[C@H](CC(C)C)NC(=O)[C@H](Cc1ccc(O)cc1)NC(=O)[C@H](CO)NC(=O)[C@H](CO)NC(=O)[C@H](CCSC)NC(=O)[C@H](CC(=O)O)NC(=O)[C@H](CO)NC(=O)[C@@H](NC(=O)[C@H](Cc1ccccc1)NC(=O)[C@@H](NC(=O)CNC(=O)[C@H](CC(=O)O)NC(=O)C(C)(C)NC(=O)[C@@H](N)Cc1c[nH]cn1)[C@@H](C)O)[C@@H](C)O)C(=O)N[C@@H](CCC(=O)O)C(=O)N[C@@H](Cc1ccccc1)C(=O)N[C@H](C(=O)N[C@@H](CC(=O)O)C(=O)N[C@@H](Cc1c[nH]c2ccccc12)C(=O)N[C@@H](CC(C)C)C(=O)N[C@H](C(=O)N[C@@H](CCCCN)C(=O)NCC(=O)N[C@@H](CCCNC(=N)N)C(=O)N1CCC[C@H]1C(=O)N[C@@H](C)C(N)=O)[C@@H](C)CC)C(C)C)C(=O)O", "note": "(H-H[Aib]DGTFTSDMSSYLEEEAAK([γGlu-Palmitoyl])EFVDWLIKGRPA-NH2)", "values": [{"measurement": "EC50", "setting": "[1]", "result": 0.021, "unit": "nM"}, {"measurement": "Activity", "setting": "Mus musculus [13]", "result": "inactive"}]}, {"smiles": "CC[C@H](C)[C@H](NC(=O)[C@H](CCCCNC(=O)COCCOCCNC(=O)COCCOCCNC(=O)CC[C@H](NC(=O)CCCCCCCCCCCCCCCCCCC(=O)O)C(=O)O)NC(=O)[C@H](CCC(=O)O)NC(=O)[C@H](CC(C)C)NC(=O)[C@H](C)NC(=O)[C@H](CCCNC(=N)N)NC(=O)[C@H](CO)NC(=O)[C@H](CCSC)NC(=O)[C@H](CC(=O)O)NC(=O)[C@H](CO)NC(=O)[C@@H](NC(=O)[C@H](Cc1ccccc1)NC(=O)[C@@H](NC(=O)CNC(=O)[C@H](CCC(N)=O)NC(=O)C(C)(C)NC(=O)[C@@H](N)Cc1c[nH]cn1)[C@@H](C)O)[C@@H](C)O)C(=O)N[C@@H](C)C(=O)N[C@@H](C)C(=O)N[C@@H](CCCNC(=N)N)C(=O)N[C@@H](CC(C)C)C(=O)N[C@@H](Cc1ccccc1)C(=O)N[C@H](C(=O)N[C@@H](CC(=O)O)C(=O)N[C@@H](Cc1c[nH]c2ccccc12)C(=O)N[C@@H](CC(C)C)C(=O)N[C@H](C(=O)N[C@@H](CCC(=O)O)C(=O)NCC(=O)NCC(=O)N1CCC[C@H]1C(=O)N[C@@H](CO)C(=O)N[C@@H](CO)C(=O)NCC(=O)N[C@@H](C)C(=O)N1CCC[C@H]1C(=O)N1CCC[C@H]1C(=O)N1CCC[C@H]1C(=O)N[C@@H](CO)C(N)=O)[C@@H](C)CC)C(C)C", "note": "(H-H[Aib]QGTFTSDMSRALEK([AEEA-AEEA-γGlu-C20 diacid])IAARLFVDWLIEGGPSSGAPPPS-NH2)", "values": [{"measurement": "EC50", "setting": "[1]", "result": 0.018, "unit": "nM"}, {"measurement": "Activity", "setting": "[14]", "result": 294, "unit": "%"}, {"measurement": "EC50", "setting": "Glucagon receptor [2]", "result": 0.53, "unit": "nM"}, {"measurement": "Activity", "setting": "Glucagon receptor [15]", "result": 17, "unit": "%"}, {"measurement": "EC50", "setting": "[3]", "result": 0.96, "unit": "nM"}, {"measurement": "Activity", "setting": "[16]", "result": 3, "unit": "%"}]}]}
